Assays:
CAR T cells = assay: CAR T cell proliferation in CAR T cell:cancer cell co-culture (Cell Trace Violet, flow cytometry); type: cell-based, human; conditions: CAR T:tumour cell co-culture 1:1; concentrations of Table 2
Procedure: CAR T cell proliferation is confirmed by Cell Trace™ Violet staining of CAR T cells (staining agent having been added prior to addition of the T cells to the co-cultures with tumour cells). Staining may be observed, following co-culture, via flow cytometry.
UR-13870, Ralimetinib or Acumapimod are each added to a culture of CD19+ cancer cells (using a micropipette to transfer the correct volume to achieve the desired final concentration in Table 2).
CAR T cells are then added to the same culture 5-10 minutes later. In brief, CAR T cell concentrations per ml are determined and used to aliquot the desired number of CAR T cells into the culture to achieve the described 1:1 CAR T to cancer cell ratio.
The co-culture containing CAR T cells and tumour cells is swirled gently to ensure homogenous dispersion of cells throughout the vessel. The resultant co-culture is incubated for 24 to 96 hours in a closed incubator at 37° C. with 5% CO2 and a suitably humid atmosphere.

HUVEC endothelial cells = assay: IL-6 and IL-8 ELISA of HUVEC cells treated with sCART-mono supernatant; type: cell-based, human; conditions: 24 hr, concentrations of Table 2
Procedure: With reference to FIG. 13 of the accompanying drawings, a co-culture (100) is established using a standard cell culture transwell dish, including a first compartment (101), containing CAR T cells and cancer cells (at a 1:1 ratio), which is separated from a second compartment (102), containing monocytes, by a semi-permeable membrane (103) composed of tissue-culture treated polyethylene terephthalate with a 0.4 μm pore size.
Each of UR-13870, Acumapimod and Ralimetinib are administered to the co-culture following a procedure analogous to that described in Example 2 above (at the concentrations as shown in Table 2 above).
The co-culture is incubated at 37° C., 5% CO2 and a suitably humid environment for 24 hours. On completion, the transwell insert is removed and supernatant is isolated. Cells and debris are removed from the supernatant by exposing the container to a centripetal force of 400 G and gently pipetting the supernatant into a new container without disturbing the cell pellet at the bottom of the previous container.
Prior to adding the p38 inhibitors and sCART-mono, endothelial cells are incubated overnight at 37° C. and 5% CO2 in a suitably humid environment to allow the cells to adhere fully to the tissue culture dish.
Supernatant levels of IL-6 and IL-8 are determined following 24 hr treatment with sCART-mono and the p38 MAPK inhibitors by ELISA.

[1] = test system: PBMC humanized NSG-MHC I/II double knock-out mice with Raji-Luc CD19-expressing cancer cells; assay: In vivo (murine) model using anti-CD28 antibody for CRS induction; set-up: species or system mouse
Description: An outline of the timeline of the model is provided in FIG. 19; it commences on Study Day 0 and ends on Study Day 10. […] It thus models the effect of administering a p38 MAP kinase inhibitor prior to the onset of CRS in accordance with the present disclosure.
Anti-CD28 antibody acts as a super-agonist of T cells (i.e., strongly activates T cells) resulting in T cell-mediated tumour cell death, with a rapid consequent release of cytokines and knock-on effects for monocytes and endothelial cells; thus modelling CRS induced by various different types of T cell-involving cancer immunotherapy.
Thus, on Study Day 0, 30 female 6- to 8-week-old NSG-(KbDb)null (IA)null mice are irradiated at 100 cGy. Approximately 4 hours later, on the same day (Study Day 0) all mice are humanised by IV dosing with 15×10^6 human peripheral blood mononuclear cells (PBMCs).
On Study Day 5, all mice are intravenously dosed with 0.25×10^6 Raji-Luc CD19-expressing cancer cells (a Raji wild-type cell line with stable and high expression of luciferase, enabling detection of cancer burden by […]). Approximately 4 hours later, mice are imaged using in vivo […] imaging (IVIS). For IVIS, mice are IP injected with 150 mg/kg D-Luciferin. 10 minutes after the D-Luciferin injection, mice are imaged dorsal and ventral; auto exposure) using an IVIS Lumina system (obtainable from PerkinElmer of Chalfont Road. Seer Green, Beaconsfield, HP9 2FX, UK). Regions of interest (ROI) are drawn for each mouse to capture its whole body, and total flux (p/s) is reported. Tumour burden continues to be monitored by IVIS twice per week, starting on Study Day 5, until the end of the study. Daily clinical observation continues throughout the study, including observation of CRS, CRS being scored as follows:
On Study Day 6, 25 of the 30 mice are treated with 1 mg/kg anti-CD28.
As a control, a group consisting of the 5 remaining mice (“Group 1”) are not administered anti-CD28. Beginning on Study Day 4 and ending on Study Day 10, Group 1 receive treatment with 0.5% (w:v) HPMC, 0.1% (w:v) Tween 80 in sWFI (vehicle/control), administered BID at 5 mL/kg.
The 25 mice administered anti-CD28 are divided into groups of 5 mice per group. Administration of a control drug (Humira), vehicle or UR-13870 is carried out in accordance with the following protocol: • Group 2—Vehicle only, BID, beginning on Study Day 4 and ending on Study Day 10; • Group 3—UR-13870 (formulated in vehicle), 2 mg/kg, twice daily (BID) beginning on Study Day 4 and ending on Study Day 10; • Group 4—UR-13870 (formulated in vehicle), 10 mg/kg, twice daily (BID) beginning on Study Day 4 and ending on Study Day 10; • Group 5—UR-13870 (formulated in vehicle), 25 mg/kg, twice daily (BID) beginning on Study Day 4 and ending on Study Day 10; and • Group 6—Humira (formulated in PBS) (further, positive control) 5 mg/kg, once daily beginning on Study Day 4 and ending on Study Day 10.
Dosing of UR-13870 or vehicle is by subcutaneous injection. Subcutaneous injection sites are rotated for each dose (rotating among right flank, left flank, right inguinal region, left inguinal region). For UR-13870 and vehicle, AM and PM (BID) doses are scheduled at least 6 hours apart. Dosing of Humira is by intraperitoneal injection.
On Study Days 6, 9 and 10, blood is collected from each of the 30 mice in Groups 1-6 (a 50-200 μl blood sample from each mouse, each time), for flow cytometry analysis, including analysis of CD19+ cancer cells per ml; and cytokine measurement. It should be noted that, where relevant to BID dosed groups, blood collection is carried out between AM and PM dosing.
All mice in Groups 1-6 are euthanized by CO2 asphyxiation on Study Day 10. […]

## OCCCn1cc2c(-c3ccc(F)cc3)c(-c3ccncc3)c(-c3ccc(F)cc3)nc2n1 [UR-13870, 6-bis(4-fluorophenyl)-5-(4-pyridinyl)-2Hpyrazolo[3,4-b]pyridine-2-propanol]
CAR T cells
  CAR T cell proliferation (Cell Trace Violet staining): maintain CAR T cell proliferation
HUVEC endothelial cells
  IL-6 levels in supernatant: reduced
  IL-8 levels in supernatant: (albeit non-significant) downward trend
[1]; Day 5 to Day 7
  tumour cell proliferation (tumour burden by IVIS): does not increase
[1]; Day 5 to Day 7, tumour burden by IVIS
  T cell mediated cancer cell death: maintains
[1]; anti-CD28 1 mg/kg, UR-13870 2, 10, 25 mg/kg BID s.c., Humira 5 mg/kg once daily i.p., Study Day 4 to 10
  CRS scores: significantly reduces
[1]; blood serum, Luminex
  IFNγ: reduced
  IL-2: reduced
  IL-4: reduced
  IL-6: reduced
  IL-8: reduced
  IL-10: reduced
  MIP-1α: reduced
  TNF a: reduced
[1]; blood, day 9
  hCD45+ CD3+ hCD4+ cells/μl: Neither UR-13870 or Humira had a significant impact
[1]; blood, days 9 and 10
  hCD45+ cells/μl: Neither UR-13870 or Humira had a significant impact
  hCD45+ hCD3+ cells/μl: Neither UR-13870 or Humira had a significant impact
[1]; blood, flow cytometry
  proliferation of tumour cells (counts of CD19+ cancer cells per ml): neither UR-13870 or Humira increased proliferation of tumour cells
[1]; days 9 and 10 (especially day 10)
  mean CD19+ cancer cells per ml compared to CD28 stimulation only: downward trend

Source: patent US20260115177A1, “MEDICINAL PRODUCTS AND METHODS FOR THE ALLEVIATION OF CANCER IMMUNOTHERA-PY-ASSOCIATED CYTOKINE RELEASE SYNDROME” (POOLBEG PHARMA (UK) LIMITED, priority 2023, published 2026)
